Test results reported in US11230527B2, “Solid forms of 2-(5-(4-(2-morpholinoethoxy)phenyl)pyridin-2-yl)-n- benzylacetamide” (Athenex HK Innovative Limited, priority 2017, dated 2022).
Values after ≈ are worked out from the molar mass of the structure shown. Where two headings read alike, the source gives them in different places. Each block holds one compound with its values, some of them ahead of it.

What was measured:
Format in all cases: physicochemical
[1] = HPLC chemical stability after storage at various conditions; conditions: for Area Percent at 248 nm T1 week: 1 week; for Area Percent at 248 nm T2 week: 2 weeks; for Area Percent at 248 nm T4 week: 4 weeks; for Area Percent at 248 nm T8 week: 8 weeks; for change in HPLC area percent purity (LCAP): selected storage conditions, time points over eight-week study
Protocol: High-performance Liquid Chromatography (HPLC) analysis was performed to determine the chemical stability of Forms A, B, and C of Compound A after storage at various conditions, using an Agilent 1100 system with DAD. Chemical stability was estimated by measuring and comparing the area percent of the material peak at various time points. For High-performance Liquid Chromatography (HPLC) analysis, an Agilent 1100 system with DAD was used.

[2] = XRPD physical form stability under storage conditions; conditions: up to eight weeks
Protocol: XRPD analysis is carried out using a diffractometer running in reflection mode. The 2-theta position is calibrated against a standard before running the experiment. XRPD analysis was carried out on a Panalytical X'Pert^3 Powder XRPD on a Si zero-background holder, scanning the samples between 3 and 40° 2-theta. The 2-theta position was calibrated against Panalytical 640 Si powder standard. The test material was gently compressed on a glass disc inserted into a sample holder. The sample was then loaded into a Panalytical X'Pert^3 Powder XRPD diffractometer running in reflection mode and analyzed, using the following experimental conditions.

[3] = Dynamic Vapor Sorption (DVS); conditions: for XRPD pattern after exposure to DVS experiment: 25° C. and RH up to 95%; for water uptake: between 0 and 80% RH at between 25° C. and 45° C.
Protocol: Dynamic Vapor Sorption (DVS) was measured using a SMS (Surface Measurement Systems) DVS Intrinsic. The test was performed at 25° C. while the RH was varied from 0% to 95% at 10% increments in the range of 0% RH-90% RH and at 5% increment up to 95% RH. The change in mass after each increase or decrease in the RH was recorded as a percentage of the original mass of the starting material. Dynamic Vapor Sorption (DVS) was measured using a SMS (Surface Measurement Systems) DVS Intrinsic, using the following parameters: [table]

Solubility estimation = assay: Solubility estimation
Protocol: Solubility of the solid forms of the present application in a variety of solvents is measured. Solvent is added to a sample until the total volume reaches 100 μL, followed by 100 μL per step until the sample is dissolved or the concentration is less than <1.0 mg/mL. The approximate solubility is then calculated.
Solubility of the solid forms of the present application in a variety of solvents was measured according to the following procedures. A sample (˜2 mg) was weighed into a 4-mL glass vial. Solvent was added into the vial stepwise at 50 μL per step until the total volume was 100 μL, followed by 100 μL per step until concentration was less than 1.0 mg/mL. The solutions were mixed thoroughly after each addition by sonication for 2 minutes and vortexing for 1 minute. The addition of solvent was complete if the sample was dissolved or the concentration was <1.0 mg/mL. The volumes of solvent (V1 and V2) were recorded, and approximate solubility was calculated.

Area Percent at 248 nm T1 week ([1]; 25° C./60% RH): 99.9 Area Percent
Area Percent at 248 nm T2 week ([1]; 25° C./60% RH): 99.9 Area Percent
Area Percent at 248 nm T4 week ([1]; 25° C./60% RH): 99.8 Area Percent
Area Percent at 248 nm T8 week ([1]; 25° C./60% RH): 99.9 Area Percent
Area Percent at 248 nm T0 ([1]; 25° C./60% RH): 99.8 Area Percent
Area Percent at 248 nm T1 week ([1]; 40° C./75% RH): 99.8 Area Percent
Area Percent at 248 nm T2 week ([1]; 40° C./75% RH): 99.8 Area Percent
Area Percent at 248 nm T4 week ([1]; 40° C./75% RH): 99.9 Area Percent
Area Percent at 248 nm T8 week ([1]; 40° C./75% RH): 99.9 Area Percent
Area Percent at 248 nm T0 ([1]; 40° C./75% RH): 99.8 Area Percent
Area Percent at 248 nm T1 week ([1]; 55° C./75% RH): 99.9 Area Percent
Area Percent at 248 nm T2 week ([1]; 55° C./75% RH): 99.8 Area Percent
Area Percent at 248 nm T4 week ([1]; 55° C./75% RH): 99.8 Area Percent
Area Percent at 248 nm T8 week ([1]; 55° C./75% RH): 99.9 Area Percent
Area Percent at 248 nm T0 ([1]; 55° C./75% RH): 99.8 Area Percent
Area Percent at 248 nm T1 week ([1]; Ambient): 99.8 Area Percent
Area Percent at 248 nm T2 week ([1]; Ambient): 99.8 Area Percent
Area Percent at 248 nm T4 week ([1]; Ambient): 99.8 Area Percent
Area Percent at 248 nm T8 week ([1]; Ambient): 99.9 Area Percent
Area Percent at 248 nm T0 ([1]; Ambient): 99.8 Area Percent
change in HPLC area percent purity (LCAP) [1]: no significant decrease
change in physical form (XRPD) ([2]; 25° C./60% RH): no change in physical form
change in physical form (XRPD) ([2]; 40° C./75% RH): no change in physical form
change in physical form (XRPD) ([2]; 55° C./75% RH): no change in physical form
change in physical form (XRPD) ([2]; ambient conditions): no change in physical form
hygroscopicity [3]: non-hygroscopic
XRPD pattern after exposure to DVS experiment [3]: does not change
water uptake [3]: less than 0.2 % w/w
solubility (Solubility estimation; 1,4-Dioxane, organic solvent or mixture, thermodynamic from solid, 1,4-Dioxane, read-out: Solubility): 12600 to 25100 µg/mL (≈ 29.2 to 58.2 mM)
solubility (Solubility estimation; 2-MeTHF, organic solvent or mixture, thermodynamic from solid, 2-MeTHF, read-out: Solubility): 5100 to 6380 µg/mL (≈ 11.8 to 14.8 mM)
solubility (Solubility estimation; ACN, organic solvent or mixture, thermodynamic from solid, ACN, read-out: Solubility): 4430 to 5540 µg/mL (≈ 10.3 to 12.8 mM)
solubility (Solubility estimation; Acetone, organic solvent or mixture, thermodynamic from solid, Acetone, read-out: Solubility): 5690 to 8590 µg/mL (≈ 13.2 to 19.9 mM)
solubility (Solubility estimation; CHCl3, organic solvent or mixture, thermodynamic from solid, CHCl3, read-out: Solubility): 25900 to 51800 µg/mL (≈ 60 to 120 mM)
solubility (Solubility estimation; DCM, organic solvent or mixture, thermodynamic from solid, DCM, read-out: Solubility): 1330 to 1440 µg/mL (≈ 3.08 to 3.34 mM)
solubility (Solubility estimation; EtOAc, organic solvent or mixture, thermodynamic from solid, EtOAc, read-out: Solubility): 2370 to 2630 µg/mL (≈ 5.49 to 6.09 mM)
solubility (Solubility estimation; EtOH, organic solvent or mixture, thermodynamic from solid, EtOH, read-out: Solubility): 5140 to 6420 µg/mL (≈ 11.9 to 14.9 mM)
solubility (Solubility estimation; H2O, water, thermodynamic from solid, H2O, read-out: Solubility): < 1000 µg/mL
solubility (Solubility estimation; IPA, organic solvent or mixture, thermodynamic from solid, IPA, read-out: Solubility): 1300 to 1390 µg/mL (≈ 3.01 to 3.22 mM)
solubility (Solubility estimation; IPAc, organic solvent or mixture, thermodynamic from solid, IPAc, read-out: Solubility): 1080 to 1150 µg/mL (≈ 2.5 to 2.66 mM)
solubility (Solubility estimation; MIBK, organic solvent or mixture, thermodynamic from solid, MIBK, read-out: Solubility): 1610 to 1760 µg/mL (≈ 3.73 to 4.08 mM)
solubility (Solubility estimation; MTBE, heated to 50° C.): soluble
solubility (Solubility estimation; MTBE, organic solvent or mixture, thermodynamic from solid, MTBE, read-out: Solubility): < 1000 µg/mL
solubility (Solubility estimation; MTBE, room temperature): insoluble
solubility (Solubility estimation; MeOH, organic solvent or mixture, thermodynamic from solid, MeOH, read-out: Solubility): 9580 to 19200 µg/mL (≈ 22.2 to 44.4 mM)
solubility (Solubility estimation; THF, organic solvent or mixture, thermodynamic from solid, THF, read-out: Solubility): 11000 to 22000 µg/mL (≈ 25.5 to 51 mM)
solubility (Solubility estimation; n-Heptane, organic solvent or mixture, thermodynamic from solid, n-Heptane, read-out: Solubility): < 1000 µg/mL
solubility (Solubility estimation; n-heptane, organic solvent or mixture, thermodynamic from solid, n-heptane, room temperature and when heated to 50° C., read-out: Solubility): < 1000 µg/mL
solubility (Solubility estimation; organic solvent or mixture, thermodynamic from solid, methanol, ethanol, isopropanol, acetone, MIBK, ethyl acetate, isopropyl acetate, tetrahydrofuran, 2-Me-THF, 1,4-dioxane, acetonitrile, dichloromethane, chloroform, toluene, room temperature and 50° C., read-out: Solubility): > 1000 µg/mL
solubility (Solubility estimation; toluene, organic solvent or mixture, thermodynamic from solid, toluene, read-out: Solubility): 1510 to 1610 µg/mL (≈ 3.5 to 3.73 mM)
solubility (Solubility estimation; water, thermodynamic from solid, aqueous solution (water), room temperature and when heated to 50° C., read-out: Solubility): < 1000 µg/mL
Structure (SMILES): O=C(Cc1ccc(-c2ccc(OCCN3CCOCC3)cc2)cn1)NCc1ccccc1 [Form C, 2-(5-(4-(2-morpholinoethoxy)phenyl)pyridin-2-yl)-N-benzylacetamide]

Area Percent at 248 nm T1 week ([1]; 25° C./60% RH): 99.8 Area Percent
Area Percent at 248 nm T2 week ([1]; 25° C./60% RH): 99.7 Area Percent
Area Percent at 248 nm T4 week ([1]; 25° C./60% RH): 99.8 Area Percent
Area Percent at 248 nm T8 week ([1]; 25° C./60% RH): 99.8 Area Percent
Area Percent at 248 nm T0 ([1]; 25° C./60% RH): 99.8 Area Percent
Area Percent at 248 nm T1 week ([1]; 40° C./75% RH): 99.8 Area Percent
Area Percent at 248 nm T2 week ([1]; 40° C./75% RH): 99.8 Area Percent
Area Percent at 248 nm T4 week ([1]; 40° C./75% RH): 99.7 Area Percent
Area Percent at 248 nm T8 week ([1]; 40° C./75% RH): 99.8 Area Percent
Area Percent at 248 nm T0 ([1]; 40° C./75% RH): 99.8 Area Percent
Area Percent at 248 nm T1 week ([1]; 55° C./75% RH): 99.8 Area Percent
Area Percent at 248 nm T2 week ([1]; 55° C./75% RH): 99.7 Area Percent
Area Percent at 248 nm T4 week ([1]; 55° C./75% RH): 99.7 Area Percent
Area Percent at 248 nm T8 week ([1]; 55° C./75% RH): 99.7 Area Percent
Area Percent at 248 nm T0 ([1]; 55° C./75% RH): 99.8 Area Percent
Area Percent at 248 nm T1 week ([1]; Ambient): 99.8 Area Percent
Area Percent at 248 nm T2 week ([1]; Ambient): 99.7 Area Percent
Area Percent at 248 nm T4 week ([1]; Ambient): 99.8 Area Percent
Area Percent at 248 nm T8 week ([1]; Ambient): 99.8 Area Percent
Area Percent at 248 nm T0 ([1]; Ambient): 99.8 Area Percent
change in HPLC area percent purity (LCAP) [1]: no significant decrease
change in physical form (XRPD) ([2]; 25° C./60% RH): no change in physical form
change in physical form (XRPD) ([2]; 40° C./75% RH): no change in physical form
change in physical form (XRPD) ([2]; 55° C./75% RH): no change in physical form
change in physical form (XRPD) ([2]; ambient conditions): no change in physical form
hygroscopicity [3]: non-hygroscopic
XRPD pattern after exposure to DVS experiment [3]: does not change
water uptake [3]: less than 0.2 % w/w
thermodynamic aqueous solubility (Solubility estimation; aqueous): below 1.5 mg/ml
aqueous solubility (dissolved completely) (Solubility estimation; aqueous solution (e.g., water), room temperature): > 20000 µg/mL
Structure (SMILES): O=C(Cc1ccc(-c2ccc(OCCN3CCOCC3)cc2)cn1)NCc1ccccc1 [Form B, 2-(5-(4-(2-morpholinoethoxy)phenyl)pyridin-2-yl)-N-benzylacetamide]
